Results from PMC4321955 (Free radical biology & medicine, 2013).

Columns and labels:
[1] = test system: mitochondrial sn-glycerol 3-phosphate dehydrogenase (mGPDH); assay: mGPDH superoxide/H2O2 production assay; assay type: biochemical, rat
[2] = test system: site IF/DH (site IF plus matrix NAD-linked dehydrogenases); assay: site IF/DH superoxide/H2O2 production assay; assay type: biochemical, rat
[3] = test system: complex I; assay: rate of reverse electron transport from succinate to NAD; assay type: biochemical, rat
[4] = test system: outer ubiquinone-binding site of complex III (site IIIQo); assay: site IIIQo superoxide/H2O2 production assay; assay type: biochemical, rat
[5] = test system: mitochondrial membrane potential (ΔΨm); assay: ΔΨm assay with potentiometric dye TMRM; assay type: biochemical, rat; conditions: for lowest concentration that significantly decreased ΔΨm: 5 mM glutamate plus 5 mM malate
[6] = biological target: ubiquinone-binding site of complex I (site IQ) (Rattus norvegicus, UniProt A6K8N6+P03889+Q641Y2); assay: site IQ superoxide/H2O2 production assay; assay type: biochemical; conditions: at the compound's estimated IC50 (80 µM for compound 15); 5 mM succinate
[7] = test system: site IQ; assay type: biochemical, rat; conditions: […] CN-POBS
[8] = test system: flavin site of complex II (site IIF); assay: site IIF superoxide/H2O2 production assay; assay type: biochemical, rat
[9] = ref NCBI PubChem compound database; cited from earlier work
[10] = test system: site IF; assay: steady-state H2O2 production specifically from site IF; assay type: biochemical, rat; conditions: […] CN-POBS; 5 mM malate, […] ATP, 1.5 mM aspartate, 4 µM rotenone, 1 µg/mL oligomycin
[11] = at the compound's estimated site IQ IC50 (80 µM for compound 15)
[12] = dose-response 0.08-80 µM, none observed below this

In the case of `O=[N+]([O-])c1ccc(Oc2ccc(S(=O)(=O)NC3CCCCC3)cc2)cc1` [CN-POBS, N-cyclohexyl-4-(4-nitrophenoxy)benzenesulfonamide], the “mGPDH: normalized percent change from DMSO in H2O2 production” value [1, 11] is reported as −2%, the “concentration with significant effects on H2O2 production from mGPDH” value [1, 12] is reported as at least 25 µM and the “IF/DH: normalized percent change from DMSO in H2O2 production” value [2, 11] is reported as 7%. For the same compound, the “concentration with significant effects on H2O2 production from site IF/DH” value [2, 12] was at least 25 µM, the “concentration with significant effect on reverse electron flux through complex I (rate of NAD(P)+ reduction)” value ([3]; 5 mM succinate plus 0.5 mM glutamate, no significant effect below this) was at least 25 µM and the “Rate of NAD(P)+ Reduction: normalized percent change from DMSO” value ([3]; at the compound's estimated site IQ IC50, succinate via complex I) was −1%. For the same compound, the “IIIQo: normalized percent change from DMSO in H2O2 production” value [4, 11] was 0%, the “concentration with significant effects on H2O2 production from site IIIQo” value [4, 12] was at least 25 µM and the “lowest concentration that significantly decreased ΔΨm” value ([5]; absence of nigericin, TMRM) was 8 µM. For the same compound, the “lowest concentration that significantly decreased ΔΨm” value ([5]; presence of nigericin, TMRM) was 25 µM, the “concentration that significantly decreased ΔΨm” value ([5]; 5 mM succinate and 4 µM rotenone, TMRM) was 80 µM and the “ΔΨm: normalized percent change from DMSO” value [5, 11] was −1%. The “IQ: normalized percent change from DMSO in H2O2 production” value [6] was −56%, the “decrease in total rate of H2O2 production” value ([7]; 5 mM succinate alone) was 50% and the “effect on H2O2 production by succinate in the presence of rotenone (from site IF/DH)” value ([7]; 5 mM succinate with 4 µM rotenone) was “no significant effect”. The “IIF: normalized percent change from DMSO in H2O2 production” value [8, 11] was 4%, the “concentration with significant effects on H2O2 production from site IIF” value [8, 12] was at least 25 µM and the LogP [9] was 4.1. The “effect on H2O2 production specifically from site IF” value [10] was “no effect”.
